Tested on: MIA PaCa-2 cells
Test: Gemcitabine treatment, cell viability by CCK-8 assay
Format: cell-based, human
Settings: method says 20 μM for 48 hr
Description: Gemcitabine Treatment Cells were seeded in 96-well plates at a density of 10^4 cells/well. […] Cell viability was accessed by CCK-8 assay following the manufacturer's instructions. Briefly, a mixture of 10 μL of CCK-8 and 190 μL media was added into each well, and the cells were incubated for another 1 hr. The absorbance of each well was measured at 450 nm using a microplate reader. Each experiment was performed in 6 repeats.

SMILES: Nc1ccn([C@@H]2O[C@H](CO)[C@@H](O)C2(F)F)c(=O)n1 [gemcitabine]
- viability of malignant MIA PaCa-2 cells with vs without gemcitabine treatment: dramatic decrease in viability

From US12529700B2, “Methods for identifying cancer” (NDSU Research Foundation, priority 2021, dated 2026)
